These results are taken from publication PMC3293897, “Diphenyl Urea Derivatives as Inhibitors of Transketolase: A Structure-Based Virtual Screening” (PLoS ONE, 2012).

Like-named read-outs stand apart in the source and are kept apart here.

Test [1] deals with T1, Transketolase from cell extract (Homo sapiens, UniProt P29401).
T1 construct: approximately 300 µg of protein cell extract used for the determination of transketolase enzyme activity; endogenous in cells; host or cells: Cultured cells
T1 sequence (P29401 1-623): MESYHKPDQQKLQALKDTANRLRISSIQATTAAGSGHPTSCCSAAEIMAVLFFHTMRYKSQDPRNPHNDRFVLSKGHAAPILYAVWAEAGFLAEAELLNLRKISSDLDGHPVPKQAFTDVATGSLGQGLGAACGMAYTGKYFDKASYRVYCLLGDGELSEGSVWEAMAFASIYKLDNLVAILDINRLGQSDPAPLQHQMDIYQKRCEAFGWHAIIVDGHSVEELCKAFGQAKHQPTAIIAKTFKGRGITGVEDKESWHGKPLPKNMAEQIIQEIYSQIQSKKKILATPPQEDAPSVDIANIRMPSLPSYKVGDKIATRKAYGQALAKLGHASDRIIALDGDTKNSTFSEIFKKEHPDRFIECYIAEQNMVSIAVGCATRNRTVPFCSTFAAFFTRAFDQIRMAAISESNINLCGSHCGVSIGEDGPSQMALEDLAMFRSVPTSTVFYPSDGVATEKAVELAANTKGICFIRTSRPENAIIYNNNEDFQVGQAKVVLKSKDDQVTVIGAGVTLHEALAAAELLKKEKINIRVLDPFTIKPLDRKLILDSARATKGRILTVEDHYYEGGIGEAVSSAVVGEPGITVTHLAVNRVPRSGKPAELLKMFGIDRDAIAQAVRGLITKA
The test is described as follows: Transketolase activity in cell extract (enzyme-linked NADH oxidation, spectrophotometric/fluorimetric). As to conditions: for inhibitory activity class (Figure 2): Figure 2 grouping. It is filed as biochemical. The procedure:
Cell cultures were washed with PBS, detached from the flasks using 0.025% trypsin-EDTA and then resuspended in lysis buffer (1 mM dithiothreitol, 1 mM EDTA, 0.02% Triton X-100, 0.02% sodium deoxycholate, 0.2 mM phenylmethylsulfonyl fluoride, 1% sodium azide and 20 mM Tris-HCl, pH 7.5). Cells were homogenized using a laboratory sonicator (1/2 Liter Branson 200 Ultrasonic bath, 5 min, 40 kHz, 4°C) and immediately ultracentrifuged at 105000×g for 1 hour at 4°C. The supernatant was separated and approximately 300 µg of protein cell extract used for the determination of transketolase enzyme activity using a Cobas Mira Plus chemistry analyzer (HORIBA ABX, Montpellier, France) or a spectrofluorimeter Kontron SFM-25 (Bio-Tek Instruments, VT, United States).
Transketolase (EC 2.2.1.1) activity was determined using the enzyme linked method described by Smeets and colleagues. Briefly, cell extract and inhibitors were added to a cuvette containing 5 mM MgCl2, 0.2 U×mL^−1 glycerophsphate dehydrogenase-triosephosphate isomerase (from rabbit muscle), 0.2 mM NADH, 0.1 mM thiamine pyrophosphate (TPP) and 50 mM Tris-HCl, pH 7.6 at 37°C. The reaction was initiated by the addition of 300 µL substrate mixture (see below) per mL of cuvette volume. The oxidation of NADH, which is directly proportional to transketolase activity, was followed by the decrease in absorbance at 340 nm (spectrophotometric method) or in fluorescence at 450 nm when excited at 330 nm (fluorimetric method) before and after the addition of the different compounds tested. A blank with all the assay components but the sample was performed in each experiment by measuring the oxidation of NADH. The substrate mixture was prepared by dissolving 50 mM ribose-5-phosphate in 50 mM Tris-HCl, pH 7.6, and adding 0.05 IU ribulose-5-phosphate-3-epimerase (from baker's yeast) and 0.25 IU phosphoriboisomerase (from spinach). The substrate mixture was continuously stirred and heated for 1 hour at 37°C and then kept at −20°C until use.
Protein concentration of cell extracts was determined using the BCA Protein Assay (Pierce Biotechnology, Rockford, IL) to calculate the specific activity of the transketolase enzyme.

The subject of test [2] is HT29 cells. The test is described as follows: MTT cell viability assay, HT29. It is filed as cell-based, human. The procedure:
(§1) HCT116 human colon carcinoma cells (gift from Dr Capellà, Institut Català d'Oncologia, Barcelona, Spain) were grown in DMEM∶HAM F12 (1∶1), supplemented with 10% heat-inactivated foetal calf serum (FCS) (PAA Laboratories, Pasching, Austria), L-glutamine (2 mM), pyruvic acid (1 mM), non-essential aminoacids (1%) and antibiotics: 100 U×mL^−1 penicillin and 100 µg×mL^−1 streptomycin. HT29 human colon adenocarcinoma cells (obtained from the American Type Culture Collection -ATCC-) were grown in Dulbecco's Modified Eagle's Medium, 25 mM D-glucose, 4 mM L-glutamine supplemented with 10% heat-inactivated FCS, and antibiotics: 100 U×mL^−1 penicillin and 100 µg×mL^−1 streptomycin (Invitrogen, Paisley, UK). All cell cultures were carried out at 37°C in a humidified atmosphere with 5% CO2. Subconfluent monolayers of cells were used in all experiments.
(§2) Cell viability was determined using the MTT assay, which is based on the ability of live cells to cleave the tetrazolium ring, thus producing formazan, which absorbs at 570 nm. 5000 cells/well HT29 cells or 1700 cells/well HCT116 cells were seeded into 96-well plates and incubated for 24 h prior to the addition of the different compounds at different concentrations, in triplicate. After incubation for 72 h, the supernatant was aspirated and 100 µL of filtered MTT (0.5 mg/mL) was added to each well. Following 1 h of incubation, the supernatant was removed and the formazan precipitated was dissolved in DMSO. Relative cell viability was measured by absorbance at 550 nm on an ELISA plate reader (Tecan Sunrise MR20-301, TECAN, Austria). Concentrations that inhibited cell growth by 50% (IC50) after treatment were determined.
For orientation: Tetrazolium assays rely on reduction of a dye to a coloured formazan, in cell work by metabolically active cells.

Test [3] relates to HCT116 cells. The test is described as follows: MTT cell viability assay, HCT116. It is filed as cell-based, human. The procedure:
as §1, §2

Where [4] appears, read: Homo sapiens, HT-29, 72 h incubation, read-out: IC50 Cell viability (HT29 cells).
Setting [5] is: Homo sapiens, HCT-116, 72 h incubation, read-out: IC50 Cell viability (HCT116 cells).

On to `Cc1c(Cl)cccc1NC(=O)Nc1ccc(CC(=O)O)cc1` [T2C], for which the IC50 in test [1] was above 200 µM; in test [2] (setting [4]), 200 µM; in test [3] (setting [5]), 200 µM. Moreover, in test [1], the “inhibitory activity class (Figure 2)” value was “Inactives”. For the same compound, the “transketolase inhibition in the enzymatic assay (in words)” value (“transketolase inhibition” below) in test [1] (cell extract) is “inactive”.
As for `Cc1c(Cl)cccc1NC(=O)Nc1cc([N+](=O)[O-])ccc1O` [T2], the IC50 in test [1] was found to be 200 µM; in test [2] (setting [4]), 10 µM; in test [3] (setting [5]) it was 9 µM. The “inhibitory activity class (Figure 2)” value in test [1] was “Actives”.
For the compound `O=[N+]([O-])c1cccc(NC(=S)Nc2cc(Cl)ccc2O)c1` [T2E], the IC50 is above 200 µM in test [1], 20 µM in test [2] (setting [4]) and 13 µM in test [3] (setting [5]). Further, the “inhibitory activity class (Figure 2)” value in test [1] is “Inactives”. Moreover, in test [1] (cell extract), the “transketolase inhibition” value is “poorly active”.
Take `Cc1ncc(C[n+]2csc(CCO)c2C)c(=O)[nH]1` [oxythiamine, reference compound]: the IC50 in test [2] (72 h incubation, read-out: IC50 cell viability (HT29)) worked out at 8000 µM; in test [3] (72 h incubation, read-out: IC50 cell viability (HCT116)), 8000 µM.
With `CCc1ccc(NC(=O)Nc2cccc([N+](=O)[O-])c2)c(CC)c1` [T2D], the half-inhibitory concentration (IC50) in test [1], in test [2] (setting [4]) and in test [3] (setting [5]) was above 200 µM throughout. Also, the “inhibitory activity class (Figure 2)” value in test [1] was “Inactives”. The “transketolase inhibition” value in test [1] (cell extract) was “no inhibition of transketolase”.
For the compound `O=C(Nc1ccccc1)Nc1cc(Cl)c([N+](=O)[O-])cc1O` [T2B], in test [1], the “inhibitory activity class (Figure 2)” value is listed as “Actives”. For the same compound, the IC50 in test [1] (cell extract, compound concentration varied 50 to 300 µM, read-out: IC50 Transketolase from cell extract) amounted to 100 µM; in test [2] (setting [4]), 6 µM; in test [3] (setting [5]) it was 12 µM.
Take `Cc1c(Cl)cccc1NC(=O)Nc1cccc(O)c1` [T2F]: in test [1], the IC50 was above 200 µM and the “inhibitory activity class (Figure 2)” value is “Inactives”. Besides, the “transketolase inhibition” value in test [1] (cell extract) is listed as “no activity”.
As for `Cc1ccc([N+](=O)[O-])cc1NC(=O)Nc1cccc2c(O)cccc12` [T2A], the IC50 in test [1] was 150 µM; in test [2] (setting [4]), 15 µM; in test [3] (setting [5]) it was 17 µM. Further, in test [1], the “inhibitory activity class (Figure 2)” value is reported as “Actives”.

As a reminder, the IC50 is the concentration that gives 50% inhibition.
